Earlier results, collected in patent US20130338098A1, “Topical Analgesic Compositions Containing Aliphatic Polyamines and Methods of Using Same” (Dermal Therapy (Barbados) Inc., priority 2000, published 2013).

Details: orally, intravenously, intraperitoneally, and intramuscularly

Structure (SMILES): NCCCCN [putrescine, 1,4-diaminobutane]
- Toxicity: very low toxicity
